Experimental findings from ChEMBL document CHEMBL1128696, “Hydroxylated aromatic inhibitors of HIV-1 integrase” (J Med Chem, 1995) are described below.

SMILES strings stand for the structures.

Sequence of Human immunodeficiency virus type 1 integrase (Q7ZJM1 whole entry): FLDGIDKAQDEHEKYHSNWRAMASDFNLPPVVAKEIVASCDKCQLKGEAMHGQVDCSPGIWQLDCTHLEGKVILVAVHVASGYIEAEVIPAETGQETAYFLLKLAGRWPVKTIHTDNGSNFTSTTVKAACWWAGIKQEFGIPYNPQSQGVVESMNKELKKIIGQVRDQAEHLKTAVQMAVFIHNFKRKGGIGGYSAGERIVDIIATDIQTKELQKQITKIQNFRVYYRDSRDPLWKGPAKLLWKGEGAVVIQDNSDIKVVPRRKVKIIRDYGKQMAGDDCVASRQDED

This experiment concerns the target Human immunodeficiency virus type 1 integrase (Human immunodeficiency virus 1, UniProt Q7ZJM1). Briefly: In vitro inhibitory activity against HIV-1 integrase.
As for `O=C(/C=C/c1ccc(O)c(O)c1)OCCCc1ccccc1`, half-maximal inhibition (IC50) was put at 8 µM.

Regarding `COC(=O)c1cc2cc(O)c(O)cc2cn1`, the IC50 (usually the point on the concentration scale where inhibition reaches its midpoint) is over 100 µM.

The compound `O=C(/C=C/c1ccc(O)c(O)c1)OCCc1cccc2ccccc12` showed an IC50 of 15 µM. To `COC(=O)c1cc2ccc(O)c(O)c2cn1` belongs 14 µM.

As for `COC(=O)/C=C/c1ccc(O)c(O)c1` [METHYLCAFFEATE], the half-inhibitory concentration (IC50) was over 100 µM. Compound `N=c1oc2c(O)c(O)ccc2cc1C(N)=O` returned an IC50 of 93 µM.

Regarding `O=C(CCc1ccc(O)c(O)c1)NCCc1ccc(O)c(O)c1`, the IC50 is 3 µM. To `O=C(/C=C/c1ccc(O)c(O)c1)OCCc1ccc2ccccc2c1` belongs 44 µM. To `O=C(CCc1ccc(O)c(O)c1)OCCc1ccccc1` belongs 11 µM; to `O=C(/C=C/c1cc(O)c(O)c(O)c1)OCCc1ccccc1`, 2 µM; to `O=C(Cc1ccccc1)NCCc1ccc(O)c(O)c1`, over 100 µM. As to `O=C(CCc1ccc(O)c(O)c1)NCCc1cc(O)c(O)c(O)c1`, the 50% inhibitory concentration (IC50) stood at 4 µM. Consider `O=C(NCc1ccccc1)c1cc2ccc(O)c(O)c2cn1`, for which the midpoint of inhibition, the IC50, lay at 75 µM. To `O=C(/C=C/c1ccc(O)c(O)c1)OCCc1ccccc1` [CAFFEIC ACID PHENETHYL ESTER] belongs 7 µM; to `O=C(/C=C/c1cc(O)ccc1O)OCCc1ccccc1`, over 100 µM. For `O=C(/C=C/c1ccc(F)c(F)c1)OCCc1ccccc1` the value was over 100 µM; for `O=C(OCCc1ccccc1)c1ccc2cc(O)c(O)cc2c1`, 68 µM; for `O=C(CCc1ccc(O)c(O)c1)NCCc1ccccc1`, over 100 µM. As for `O=C(NCc1ccccc1)c1cc2cc(O)c(O)cc2cn1`, the IC50 is over 100 µM.

Compound `O=C(/C=C/c1cc(O)c(O)cc1O)OCCc1ccccc1` displayed an IC50 of 55 µM. For `O=C(CCc1ccccc1)NCCc1ccc(O)c(O)c1`, the IC50 is over 100 µM. The compound `O=C(/C=C/c1ccc(O)c(O)c1)OCc1ccccc1` [BENZYL CAFFEATE] showed an IC50 of 9 µM. For `N#C/C(=C\c1ccc(O)c(O)c1)C(N)=O` the value was over 100 µM. For `O=C(/C=C/c1ccc(O)c(O)c1O)OCCc1ccccc1` the value was 2 µM; for `COC(=O)c1ccc2c(O)c(O)ccc2c1`, 8 µM; for `CCOC(=O)/C=C/c1ccc(O)c(O)c1` [ETHYL CAFFEATE], over 100 µM.

On to `COc1ccc(/C=C/C(=O)OCCc2ccccc2)cc1O`, for which inhibition was half-maximal at 60 µM (IC50).

`COc1cc(/C=C/C(=O)OCCc2ccccc2)ccc1O`: the IC50 is over 100 µM.

`COc1ccc(/C=C/C(=O)OCCc2ccccc2)cc1OC` showed an IC50 of over 100 µM. In the case of `O=C(OCCc1ccccc1)c1ccc2c(O)c(O)ccc2c1`, 18 µM corresponded to half-maximal inhibition (IC50).

Compound `N=c1oc2cc(O)c(O)cc2cc1C(N)=O` returned an IC50 of 48 µM. For `O=C(NCCc1ccccc1)c1cc2ccc(O)c(O)c2cn1` the value was 40 µM.
